Source: ChEMBL document CHEMBL1201862, “PubChem BioAssay data set” (2004)
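48-hour exposure; five concentrations; linearly interpolated endpoints. GI50: concentration for 50% inhibition of growth.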 Active and inactive are the calls of the source. No stated cut-off is given here; in the data, active = GI50 up to about 1.1 µM and inactive = higher.

Columns and labels:
Test in all cases: DTP human tumour cell line panel, 48 h
[1] = system: 786-0
[2] = system: A498
[3] = system: A549
[4] = system: ACHN
[5] = system: BT-549
[6] = system: CAKI-1
[7] = system: CCRF-CEM
[8] = system: DU-145
[9] = system: EKVX
[10] = system: HCC 2998
[11] = system: HCT-15
[12] = system: HL-60
[13] = system: HOP-62
[14] = system: HOP-92
[15] = system: HT-29
[16] = system: Hs-578T
[17] = system: IGROV-1
[18] = system: K562
[19] = system: KM12
[20] = system: LOX IMVI
[21] = system: M14
[22] = system: MCF7
[23] = system: MDA-MB-231
[24] = system: MDA-MB-435
[25] = system: MDA-N
[26] = system: MOLT-4
[27] = system: Malme-3M
[28] = system: NCI-H226
[29] = system: NCI-H23
[30] = system: NCI-H460
[31] = system: NCI-H522
[32] = system: NCI/ADR-RES
[33] = system: OVCAR-3
[34] = system: OVCAR-4
[35] = system: OVCAR-5
[36] = system: OVCAR-8
[37] = system: PC-3
[38] = system: RXF 393
[39] = system: SF-268
[40] = system: SF-295
[41] = system: SF-539
[42] = system: SK-MEL-28
[43] = system: SK-MEL-2
[44] = system: SK-MEL-5
[45] = system: SK-OV-3
[46] = system: SN12C
[47] = system: SNB-19
[48] = system: SNB-75
[49] = system: SR
[50] = system: SW-620
[51] = system: T47D
[52] = system: TK-10
[53] = system: U-251
[54] = system: UACC-257
[55] = system: UACC-62
[56] = system: UO-31
[57] = system: COLO 205
[58] = system: HCT-116
[59] = system: RPMI-8226

Measured: GI50

NCC1OC(OC2C(N)CC(N)C(O)C2OC2OC(CO)C(O)C2O)C(N)C(O)C1O (stereo unspecified)
inactive: [1] > 50 µM | [2] > 50 µM | [3] > 100 µM | [4] > 50 µM | [5] > 100 µM | [6] > 100 µM | [7] > 100 µM | [8] > 100 µM | [9] > 100 µM | [10] > 50 µM | [12] > 100 µM | [13] > 50 µM | [14] > 50 µM | [15] > 50 µM | [16] > 100 µM | [17] > 50 µM | [18] > 100 µM | [19] > 50 µM | [20] > 50 µM | [21] > 50 µM | [22] > 100 µM | [23] > 50 µM | [24] > 100 µM | [25] > 50 µM | [26] > 50 µM | [27] > 100 µM | [28] > 100 µM | [29] > 100 µM | [30] > 50 µM | [31] > 100 µM | [32] > 100 µM | [33] > 100 µM | [34] > 100 µM | [35] > 100 µM | [36] > 50 µM | [37] > 50 µM | [38] > 50 µM | [39] > 100 µM | [40] > 100 µM | [41] > 100 µM | [42] > 100 µM | [43] > 50 µM | [44] > 50 µM | [45] > 50 µM | [46] > 50 µM | [47] > 50 µM | [48] 27.8 µM | [49] > 50 µM | [50] > 100 µM | [51] > 50 µM | [52] > 50 µM | [53] > 100 µM | [54] > 50 µM | [55] > 100 µM | [56] > 100 µM
> 100 µM: [11]

CCOC(=O)c1c(N2CCOCC2)[nH]c(=O)c(C(c2cccs2)c2c(O)c(C(=O)OCC)c(N3CCOCC3)[nH]c2=O)c1O
inactive: [1] > 100 µM | [2] > 100 µM | [3] > 100 µM | [4] > 100 µM | [5] > 100 µM | [6] > 100 µM | [7] > 100 µM | [57] > 100 µM | [8] > 100 µM | [9] > 100 µM | [10] > 100 µM | [58] > 100 µM | [13] > 100 µM | [14] > 100 µM | [15] > 100 µM | [16] > 100 µM | [18] > 100 µM | [19] > 100 µM | [20] > 100 µM | [21] > 100 µM | [22] > 100 µM | [23] > 100 µM | [24] > 100 µM | [25] > 100 µM | [26] > 100 µM | [27] > 100 µM | [28] > 100 µM | [29] > 100 µM | [30] > 100 µM | [31] > 100 µM | [32] > 100 µM | [33] > 100 µM | [34] > 100 µM | [35] > 100 µM | [36] > 100 µM | [37] > 100 µM | [59] > 100 µM | [38] > 100 µM | [39] > 100 µM | [40] > 100 µM | [41] > 100 µM | [42] > 100 µM | [43] > 100 µM | [44] > 100 µM | [45] > 100 µM | [46] > 100 µM | [47] > 100 µM | [48] > 100 µM | [49] > 100 µM | [50] > 100 µM | [51] > 100 µM | [52] > 100 µM | [53] > 100 µM | [54] > 100 µM | [55] > 100 µM | [56] > 100 µM
> 100 µM: [11]

CCOc1ccc2c(C)cc(=O)oc2c1
> 100 µM: [11]
inactive: [1] > 100 µM | [2] > 100 µM | [3] > 100 µM | [4] > 100 µM | [5] > 100 µM | [6] > 100 µM | [7] > 100 µM | [57] > 100 µM | [8] > 100 µM | [9] > 100 µM | [10] > 100 µM | [58] > 100 µM | [12] > 100 µM | [13] > 100 µM | [14] > 100 µM | [15] > 100 µM | [16] > 100 µM | [17] > 100 µM | [18] > 100 µM | [19] > 100 µM | [20] > 100 µM | [21] > 100 µM | [22] > 100 µM | [23] > 100 µM | [24] > 100 µM | [25] > 100 µM | [26] > 100 µM | [27] > 100 µM | [28] > 100 µM | [29] > 100 µM | [30] > 100 µM | [31] > 100 µM | [32] > 100 µM | [33] > 100 µM | [34] > 100 µM | [35] > 100 µM | [36] > 100 µM | [37] > 100 µM | [59] > 100 µM | [38] > 100 µM | [39] > 100 µM | [40] > 100 µM | [41] > 100 µM | [42] > 100 µM | [43] > 100 µM | [44] > 100 µM | [46] > 100 µM | [47] > 100 µM | [48] > 100 µM | [49] > 100 µM | [50] > 100 µM | [51] > 100 µM | [53] > 100 µM | [54] > 100 µM | [55] > 100 µM | [56] > 100 µM

C=CCc1cc(C=C(C#N)C#N)cc(OC)c1O
inactive: [1] > 100 µM | [2] > 100 µM | [3] > 100 µM | [4] > 100 µM | [5] 90.4 µM | [6] > 100 µM | [7] 46.9 µM | [57] 52.6 µM | [8] > 100 µM | [9] > 100 µM | [10] > 10 µM | [58] > 100 µM | [12] 28.2 µM | [14] 33.5 µM | [15] > 100 µM | [16] > 100 µM | [17] > 100 µM | [18] 62.2 µM | [19] > 100 µM | [20] 50.2 µM | [21] > 100 µM | [22] 53.1 µM | [23] > 100 µM | [24] 59 µM | [25] > 100 µM | [26] 40 µM | [27] > 100 µM | [28] > 100 µM | [29] 79.8 µM | [30] > 100 µM | [31] 90.6 µM | [32] > 100 µM | [33] 35.2 µM | [34] > 100 µM | [35] > 100 µM | [36] > 100 µM | [37] 35.8 µM | [59] 39.4 µM | [38] 24.8 µM | [40] > 100 µM | [41] > 100 µM | [42] > 100 µM | [43] > 100 µM | [44] 27.7 µM | [45] > 100 µM | [47] > 100 µM | [48] 55.5 µM | [49] 42.7 µM | [50] 81.7 µM | [51] 38.9 µM | [52] > 100 µM | [53] 76.2 µM | [54] > 100 µM | [55] 94.2 µM | [56] > 100 µM
67.6 µM: [11]
